Here are results for one compound from US20120270237A9, “METHODS FOR THE IDENTIFICATION OF KINASE INTERACTING MOLECULES AND FOR THE PURIFICATION OF KINASE PROTEINS” (Cellzone AG, priority 2009, published 2012).

Assay in all cases: Kinobeads competition binding, HL60 cell lysate
Set-up in all cases: endogenous in cells
Conditions in all cases: 10 μM free compound

The target of one assay is MLK3 (Homo sapiens, UniProt Q16584). Summed up: (§1)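 Target occupancy is inferred from reduced capture of each kinase on compound-coupled beads after lysate pre-treatment with 10 μM free compound, relative to a DMSO lysate. Quantitation used isobaric iTRAQ tags and tandem MS.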
The target in another assay is CDK2 (Homo sapiens, UniProt P24941). Summed up: as §1
Another assay concerns the target T1, MST1 (Homo sapiens, UniProt Q13043).
T1 sequence (Q13043 1-487): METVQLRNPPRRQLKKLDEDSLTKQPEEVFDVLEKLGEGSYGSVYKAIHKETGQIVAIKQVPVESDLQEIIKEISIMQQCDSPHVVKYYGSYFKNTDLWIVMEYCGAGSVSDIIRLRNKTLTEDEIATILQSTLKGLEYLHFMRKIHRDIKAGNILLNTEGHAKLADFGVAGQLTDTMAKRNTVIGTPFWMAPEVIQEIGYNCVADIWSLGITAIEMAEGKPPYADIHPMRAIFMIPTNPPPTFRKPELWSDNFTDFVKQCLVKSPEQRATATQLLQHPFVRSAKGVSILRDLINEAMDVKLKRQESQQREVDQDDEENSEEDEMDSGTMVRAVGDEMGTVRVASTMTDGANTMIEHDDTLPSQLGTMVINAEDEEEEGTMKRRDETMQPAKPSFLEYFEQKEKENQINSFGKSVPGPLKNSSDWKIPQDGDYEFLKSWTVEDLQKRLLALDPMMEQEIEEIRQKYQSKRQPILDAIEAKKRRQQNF
Summed up:
as §1

The target of the next assay is T2, NEK9 (Homo sapiens, UniProt Q8TD19).
T2 sequence (Q8TD19 1-979): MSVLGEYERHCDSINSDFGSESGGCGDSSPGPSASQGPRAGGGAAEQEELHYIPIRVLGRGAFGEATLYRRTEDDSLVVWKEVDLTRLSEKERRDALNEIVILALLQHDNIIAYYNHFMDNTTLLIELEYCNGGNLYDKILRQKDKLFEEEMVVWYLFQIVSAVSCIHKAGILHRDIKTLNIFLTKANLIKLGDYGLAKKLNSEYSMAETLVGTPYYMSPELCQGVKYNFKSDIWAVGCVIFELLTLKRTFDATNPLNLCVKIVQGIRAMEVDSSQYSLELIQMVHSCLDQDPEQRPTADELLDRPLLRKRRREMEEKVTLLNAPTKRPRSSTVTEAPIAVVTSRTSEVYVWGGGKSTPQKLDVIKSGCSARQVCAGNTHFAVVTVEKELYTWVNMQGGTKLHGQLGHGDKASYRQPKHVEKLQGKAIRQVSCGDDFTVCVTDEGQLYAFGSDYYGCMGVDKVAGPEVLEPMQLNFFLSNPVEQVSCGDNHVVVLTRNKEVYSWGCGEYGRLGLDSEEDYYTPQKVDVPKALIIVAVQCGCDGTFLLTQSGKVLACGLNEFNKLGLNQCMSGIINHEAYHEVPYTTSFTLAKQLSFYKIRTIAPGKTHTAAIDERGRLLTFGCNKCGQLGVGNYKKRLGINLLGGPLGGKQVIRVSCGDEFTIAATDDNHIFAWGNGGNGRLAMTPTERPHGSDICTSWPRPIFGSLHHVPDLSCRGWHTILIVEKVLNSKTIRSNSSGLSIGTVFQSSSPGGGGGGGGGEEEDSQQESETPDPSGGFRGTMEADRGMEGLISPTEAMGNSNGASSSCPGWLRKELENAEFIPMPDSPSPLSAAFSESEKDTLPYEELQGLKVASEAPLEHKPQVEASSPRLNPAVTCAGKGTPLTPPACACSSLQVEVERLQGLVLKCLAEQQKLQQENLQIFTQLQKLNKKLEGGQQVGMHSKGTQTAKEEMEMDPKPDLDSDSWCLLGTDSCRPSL
Summed up: as §1

Another assay has as its target FES (Homo sapiens, UniProt P07332). Summed up:
as §1

SMILES strings stand for the structures.

For orientation: inhibition means the change of the read-out against control, counted positive when it falls. Higher therefore signals a strong effect.

Sequence of FES (P07332 whole entry): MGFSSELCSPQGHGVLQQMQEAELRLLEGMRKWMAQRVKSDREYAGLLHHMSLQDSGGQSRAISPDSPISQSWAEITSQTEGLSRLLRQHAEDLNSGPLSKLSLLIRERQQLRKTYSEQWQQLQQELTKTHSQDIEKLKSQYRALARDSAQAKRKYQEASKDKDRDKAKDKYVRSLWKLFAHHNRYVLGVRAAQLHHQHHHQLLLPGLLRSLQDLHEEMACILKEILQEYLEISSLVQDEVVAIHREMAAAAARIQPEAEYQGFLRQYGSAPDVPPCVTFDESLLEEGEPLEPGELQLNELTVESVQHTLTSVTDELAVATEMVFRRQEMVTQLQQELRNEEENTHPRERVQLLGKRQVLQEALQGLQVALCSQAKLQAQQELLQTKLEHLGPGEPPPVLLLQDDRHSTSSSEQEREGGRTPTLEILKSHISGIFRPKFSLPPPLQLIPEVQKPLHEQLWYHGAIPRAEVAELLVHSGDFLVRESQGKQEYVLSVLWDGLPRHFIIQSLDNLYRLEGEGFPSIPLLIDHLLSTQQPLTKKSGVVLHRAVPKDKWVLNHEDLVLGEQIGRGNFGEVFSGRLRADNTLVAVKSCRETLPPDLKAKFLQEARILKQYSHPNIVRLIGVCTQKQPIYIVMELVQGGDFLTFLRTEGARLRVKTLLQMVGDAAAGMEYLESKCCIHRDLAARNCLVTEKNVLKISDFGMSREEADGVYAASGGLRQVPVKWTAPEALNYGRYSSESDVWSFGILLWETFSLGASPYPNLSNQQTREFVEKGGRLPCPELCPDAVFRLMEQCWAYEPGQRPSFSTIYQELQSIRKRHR
Sequence of MLK3 (Q16584 whole entry): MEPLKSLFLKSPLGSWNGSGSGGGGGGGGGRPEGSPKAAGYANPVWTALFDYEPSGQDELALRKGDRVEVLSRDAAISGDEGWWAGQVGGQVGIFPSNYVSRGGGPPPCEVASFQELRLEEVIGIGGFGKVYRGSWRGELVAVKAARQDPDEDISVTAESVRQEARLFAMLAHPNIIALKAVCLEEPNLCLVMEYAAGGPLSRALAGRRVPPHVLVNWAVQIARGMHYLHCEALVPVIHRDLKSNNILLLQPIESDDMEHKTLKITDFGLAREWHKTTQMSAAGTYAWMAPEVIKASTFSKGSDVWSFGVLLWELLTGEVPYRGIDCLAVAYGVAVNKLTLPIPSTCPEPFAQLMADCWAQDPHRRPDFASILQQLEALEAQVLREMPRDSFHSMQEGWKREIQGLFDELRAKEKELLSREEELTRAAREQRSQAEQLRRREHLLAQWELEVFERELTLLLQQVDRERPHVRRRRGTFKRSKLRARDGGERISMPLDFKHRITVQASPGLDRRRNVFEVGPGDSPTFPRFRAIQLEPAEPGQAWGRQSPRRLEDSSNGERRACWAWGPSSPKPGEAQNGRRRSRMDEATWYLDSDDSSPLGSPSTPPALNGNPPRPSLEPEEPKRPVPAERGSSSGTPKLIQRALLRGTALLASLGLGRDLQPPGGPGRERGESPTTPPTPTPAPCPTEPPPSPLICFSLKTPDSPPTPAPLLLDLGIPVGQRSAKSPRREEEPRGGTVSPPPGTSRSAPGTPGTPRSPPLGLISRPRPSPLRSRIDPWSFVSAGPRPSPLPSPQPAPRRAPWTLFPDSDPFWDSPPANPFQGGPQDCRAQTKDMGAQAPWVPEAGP

On to `CS(=O)(=O)Nc1ccccc1Nc1nc(Nc2cccc(OCCN)c2)ncc1Cl` [CZC31326, N-(2-(2-(3-(2-aminoethoxy)phenylamino)-5-chloropyrimidin-4-ylamino)phenyl)methanesulfonamide], for which the Competition % is recorded as 96.5% at MLK3, 95.1% on CDK2 and 97.7% on MST1. The values for the inhibition at 10 µM on NEK9 and at FES were 93% and 96.3%, respectively.
